≈ marks a conversion by molar mass, not a printed value. Where only a bound is given, the exact number is not on record here.

In data set [1] the test system is Human Heme Oxygenase-1 (HMOX-1). Briefly: ELISA assay to measure human heme oxygenase-1 (HMOX-1) in HepG2 lysate. The data set is classed as cell-based. As to conditions: for EC50: human HMOX1 protein level in HepG2 lysate, * = average of 2 or more EC50 determinations, NA = Not Active, read-out: EC50. As for the experimental part:
Example 143. ELISA Assay to Measure Human Heme Oxygenase-1 (HMOX-1) in HepG2 lysate
Reagents and Technical Notes:
ELISA capture antibody, standard HO-1, detection antibody and streptavidin HRP were supplied in the DuoSet IC Human total HO-1 ELISA from R&D systems (DYC3776-2). The substrate cocktail was KPL LumiGLO reserve Chemiluminescent Substrate (54-71-00). PBS was Corning Cellgro Cell Culture (21-040-CV). 10×PBS+0.05% tween20 (PBST) was from KPL.
All incubations of the plate were at room temperature (20° C.) in a closed drawer.
The ELISA plate was processed manually. All loadings were with a multichannel pipet. Plates were emptied by shaking into the sink and tapping onto paper towels to remove any remaining reagent. Plate washing was accomplished by loading all wells with PBS+0.05% tween20 (PBST) using a squirt bottle, shaking the PBST out and tapping the plate onto paper towels.
Preparation of the ELISA Plate:
• 1. anti-HO-1 capture antibody was 1440 μg/ml after reconstitution in PBS. This antibody was diluted to 8 μg/ml in PBS and 50 μl per well was added to a 384 well greiner “lumitrac 200” plate. Incubated overnight. • 2. The plate was emptied and 100 μl PBS+1% BSA added to all wells. Incubated 90 minutes at room temperature. Preparation of HepG2 Lysate: • 1. Cells were cultured in a 96-well tissue culture plate washed with PBS and then the plate frozen at −70° C. overnight. Plates were allowed to warm to ice temperature in an ice bucket. 20 μl of PBS, 0.5% Triton X100, 1 mM EDTA with 1×HALT™ protease inhibitors was added to each well and the plates incubated on ice for 1 hour. • 2. The lysates were frozen at −20° C. overnight. Measurement of HMOX1 (“HO-1”) • 1. In a polypropylene 384 well plate, human HO-1 (after reconstitution in PBS+0.5% Triton+1 mM EDTA) was serially diluted from 20 ng/ml 2-fold in PBS+0.5% triton-X100, 1 mM EDTA to make a 12-point standard curve including a zero point. • 2. In a polypropylene 96 well plate, HepG2 lysate was diluted 1 to 20 in Diluent #4 from DUOSET kit in which the assay standard is also diluted. • 3. The PBS+1% BSA was emptied from the ELISA plate and 30 μl of all samples and standards were added (duplicates recommended). The plate was incubated 90 minutes. • 4. Emptied plate and washed 4 times with PBST. • 5. Diluted HO-1 detection antibody to 200 ng/ml in PBS+1% BSA and added 30 μl to all wells. Incubated 90 minutes. • 6. Emptied plate and washed 4 times with PBST. • 7. Added 30 μl streptavidin HRP at 1/200 in PBS+1% BSA (stock streptavidin concentration not specified) to all wells. Incubated 30 minutes. • 8. Emptied plate and washed 4 times with PBST. • 9. Diluted Lumiglo reserve reagent two parts buffer to one part lumiglo substrate. Added 30 μl to all wells. Incubated 5 minutes. • 10. Measured chemiluminescence on spectramax M5 using 150 ms integration.
Table 1 below lists EC50 and fold changes of human HMOX1 protein levels relative to DMSO control upon treatment with representative compounds.

A short description of data set [2]: Kinetic solubility. Format: physicochemical. As to conditions: Dulbecco's phosphate buffer saline (DPBS), aqueous buffer, kinetic from dmso stock, DPBS pH 7.4, 25° C., 200 μM test compound. How it is done: Example 144. Kinetic Solubility
10 μL of 10 mM DMSO stock solution were aliquotted to 490 μL of DMSO solution and separately 490 μL of Dulbecco's phosphate buffer saline, DPBS, pH 7.4 solution in 1.2 mL 96-well plates in duplicate. Final concentration was 200 μM of the test compound. Samples were incubated at 25° C. with shaking at 200 rpm for 16 h. Samples were centrifuged at 3500 rpm for 20 min at 25° C., and supernatant was submitted for HPLC analysis.
Kinetic solubility was measured using the following equation: […]

For the compound `COCCNC(=O)c1ccc2c(c1)nc(Nc1nc3ccc(C(F)(F)F)cc3o1)n2C` [Example 32, N-(2-methoxyethyl)-1-methyl-2-((6-(trifluoromethyl)benzo[d]oxazol-2-yl)amino)-1H-benzo[d]imidazole-5-carboxamide], the EC50 (in general, the midpoint of the concentration-response curve) in data set [1] amounted to 0.5 µM. For the same compound, the solubility (commonly how much of the substance goes into solution per volume) at 16 h in data set [2] was 1.4 µM (≈ 0.607 µg/mL).

Regarding `CC(O)CNC(=O)c1ccc2c(c1)nc(Nc1nc3ccc(C(F)(F)F)cc3o1)n2C` (centres unmarked) [Example 35, N-(2-hydroxypropyl)-1-methyl-2-((6-(trifluoromethyl)benzo[d]oxazol-2-yl)amino)-1H-benzo[d]imidazole-5-carboxamide], in data set [1], the EC50 turned out to be 1.2 µM. Besides, the solubility at 16 h in data set [2] is less than 2 µM.

Take `Cn1c(Nc2nc3ccc(C(F)(F)F)cc3o2)nc2cc(C(=O)NCCN3CCCC3)ccc21` [Example 36, 1-methyl-N-(2-(pyrrolidin-1-yl)ethyl)-2-((6-(trifluoromethyl)benzo[d]oxazol-2-yl)amino)-1H-benzo[d]imidazole-5-carboxamide]: the EC50 in data set [1] was 1.3 µM. The compound further yielded a solubility at 16 h in data set [2] of 2.8 µM (≈ 1.32 µg/mL).

As for `CC(O)COCCNC(=O)c1ccc2c(c1)nc(Nc1nc3ccc(C(F)(F)F)cc3o1)n2C` (centres unmarked) [Example 38, N-(2-(2-hydroxypropoxy)ethyl)-1-methyl-2-((6-(trifluoromethyl)benzo[d]oxazol-2-yl)amino)-1H-benzo[d]imidazole-5-carboxamide], in data set [1], the EC50 turned out to be 1.3 µM. The solubility at 16 h in data set [2] is less than 2 µM.

For `Cn1c(Nc2nc3ccc(C(F)(F)F)cc3o2)nc2cc(C(=O)NCC(O)CO)ccc21` (centres unmarked) [Example 39, N-(2,3-dihydroxypropyl)-1-methyl-2-((6-(trifluoromethyl)benzo[d]oxazol-2-yl)amino)-1H-benzo[d]imidazole-5-carboxamide], in data set [1], the EC50 was found to be 0.95 µM. Also, the solubility at 16 h in data set [2] was found to be 2.1 µM (≈ 0.944 µg/mL).

On to `CN(C)CC(=O)NCCNC(=O)c1ccc2c(c1)nc(Nc1nc3ccc(C(F)(F)F)cc3o1)n2C` [Example 40, N-(2-(2-(dimethylamino)acetamido)ethyl)-1-methyl-2-((6-(trifluoromethyl)benzo[d]oxazol-2-yl)amino)-1H-benzo[d]imidazole-5-carboxamide], for which the EC50 in data set [1] was found to be 0.69 µM. In data set [2], this compound gave a solubility at 16 h of 0.5 µM (≈ 0.252 µg/mL).

Regarding `Cn1c(Nc2nc3ccc(C(F)(F)F)cc3o2)nc2cc(C(=O)NCCOCC(=O)O)ccc21` [Example 41, 2-(2-(1-methyl-2-((6-(trifluoromethyl)benzo[d]oxazol-2-yl)amino)-1H-benzo[d]imidazole-5-carboxamido)ethoxy)acetic acid], the EC50 in data set [1] is 4.8 µM. The compound further showed a solubility at 16 h in data set [2] of 13.8 µM (≈ 6.59 µg/mL).

For the compound `Cn1c(Nc2nc3ccc(C(F)(F)F)cc3o2)nc2cc(C(=O)NCCOCC(C)(C)O)ccc21` [Example 42, N-(2-(2-hydroxy-2-methylpropoxy)ethyl)-1-methyl-2-((6-(trifluoromethyl)benzo[d]oxazol-2-yl)amino)-1H-benzo[d]imidazole-5-carboxamide], in data set [1] (fold change of human HMOX1 protein level relative to DMSO control, HepG2), the “Maximum Fold induction” value stood at 29 fold. In data set [1], the EC50 was determined as 2.3 µM. Besides, the solubility at 16 h in data set [2] was found to be 3.6 µM (≈ 1.77 µg/mL).

Consider `Cn1c(Nc2nc3cc(C(F)(F)F)ccc3o2)nc2cc(C(=O)NCCOCCO)ccc21` [Example 43, N-(2-(2-hydroxyethoxy)ethyl)-1-methyl-2-((5-(trifluoromethyl)benzo[d]oxazol-2-yl)amino)-1H-benzo[d]imidazole-5-carboxamide], for which the EC50 in data set [1] amounted to 1.3 µM. The compound also came in with a solubility at 16 h in data set [2] of 8 µM (≈ 3.71 µg/mL).

As for `COCCNC(=O)c1ccc2c(c1)nc(Nc1nc3ccc(OC(F)(F)F)cc3o1)n2C` [Example 45, N-(2-methoxyethyl)-1-methyl-2-((6-(trifluoromethoxy)benzo[d]oxazol-2-yl)amino)-1H-benzo[d]imidazole-5-carboxamide], in data set [1], the 50% effective concentration (EC50) came to 0.64 µM. Also, the solubility at 16 h in data set [2] is 0.2 µM (≈ 0.0899 µg/mL).

With `Cn1c(Nc2nc3ccc(OC(F)(F)F)cc3o2)nc2cc(C(=O)Nc3cn[nH]c3)ccc21` [Example 46, 1-methyl-N-(1H-pyrazol-4-yl)-2-((6-(trifluoromethoxy)benzo[d]oxazol-2-yl)amino)-1H-benzo[d]imidazole-5-carboxamide], in data set [1], the EC50 is 2.2 µM. In data set [2], the solubility at 16 h is less than 5 µM.

In the case of `Cn1c(Nc2nc3ccc(OC(F)(F)F)cc3o2)nc2cc(C(=O)NC(CO)(CO)CO)ccc21` [Example 47, N-(1,3-dihydroxy-2-(hydroxymethyl)propan-2-yl)-1-methyl-2-((6-(trifluoromethoxy)benzo[d]oxazol-2-yl)amino)-1H-benzo[d]imidazole-5-carboxamide], the EC50 in data set [1] amounted to 1.6 µM. This compound also registered a solubility at 16 h in data set [2] of less than 2 µM.

In the case of `Cn1c(Nc2nc3ccc(OC(F)(F)F)cc3o2)nc2cc(C(=O)NC(CO)CO)ccc21` [Example 48, N-(1,3-dihydroxypropan-2-yl)-1-methyl-2-((6-(trifluoromethoxy)benzo[d]oxazol-2-yl)amino)-1H-benzo[d]imidazole-5-carboxamide], the EC50 in data set [1] was 2 µM. This compound also showed a solubility at 16 h in data set [2] of 3.9 µM (≈ 1.82 µg/mL).

With `CN(C)CC(=O)NCCNC(=O)c1ccc2c(c1)nc(Nc1nc3ccc(OC(F)(F)F)cc3o1)n2C` [Example 49, N-(2-(2-(dimethylamino)acetamido)ethyl)-1-methyl-2-((6-(trifluoromethoxy)benzo[d]oxazol-2-yl)amino)-1H-benzo[d]imidazole-5-carboxamide], the EC50 in data set [1] was determined as 0.8 µM. Besides, the solubility at 16 h in data set [2] was less than 2 µM.

As to `Cn1c(Nc2nc3ccc(OC(F)(F)F)cc3o2)nc2cc(C(=O)NC3COC3)ccc21` [Example 51, 1-methyl-N-(oxetan-3-yl)-2-((6-(trifluoromethoxy)benzo[d]oxazol-2-yl)amino)-1H-benzo[d]imidazole-5-carboxamide], the EC50 in data set [1] came out at 1.4 µM. This compound also registered a solubility at 16 h in data set [2] of less than 2 µM.

Regarding `Cn1c(Nc2nc3ccc(OC(F)(F)F)cc3o2)nc2cc(C(=O)NCC3(O)COC3)ccc21` [Example 52, N-((3-hydroxyoxetan-3-yl)methyl)-1-methyl-2-((6-(trifluoromethoxy)benzo[d]oxazol-2-yl)amino)-1H-benzo[d]imidazole-5-carboxamide], the EC50 in data set [1] turned out to be 1 µM. Further, the solubility at 16 h in data set [2] was less than 2 µM.

On to `COCCNC(=O)c1ccc2c(c1)nc(Nc1nc3ccc(C(C)C)cc3o1)n2C` [Example 60, 2-((6-isopropylbenzo[d]oxazol-2-yl)amino)-N-(2-methoxyethyl)-1-methyl-1H-benzo[d]imidazole-5-carboxamide], for which the EC50 in data set [1] worked out at 0.7 µM. Moreover, the solubility at 16 h in data set [2] turned out to be 0.9 µM (≈ 0.367 µg/mL).

Take `CC(C)c1ccc2nc(Nc3nc4cc(C(=O)NCCO)ccc4n3C)oc2c1` [Example 61, N-(2-hydroxyethyl)-2-((6-isopropylbenzo[d]oxazol-2-yl)amino)-1-methyl-1H-benzo[d]imidazole-5-carboxamide]: the EC50 in data set [1] turned out to be 1.5 µM. Further, in data set [2], the solubility at 16 h came out at 1.2 µM (≈ 0.472 µg/mL).

Consider `COCCNC(=O)c1ccc2c(c1)nc(Nc1nc3ccc(OC(F)F)cc3o1)n2C` [Example 63, 2-((6-(difluoromethoxy)benzo[d]oxazol-2-yl)amino)-N-(2-methoxyethyl)-1-methyl-1H-benzo[d]imidazole-5-carboxamide], for which, in data set [1], the EC50 is 1.3 µM. This compound also showed a solubility at 16 h in data set [2] of 0.8 µM (≈ 0.345 µg/mL).

As to `Cn1c(Nc2nc3ccc(OC(F)F)cc3o2)nc2cc(C(=O)NCCO)ccc21` [Example 64, 2-((6-(difluoromethoxy)benzo[d]oxazol-2-yl)amino)-N-(2-hydroxyethyl)-1-methyl-1H-benzo[d]imidazole-5-carboxamide], the EC50 in data set [1] is 1.8 µM. Moreover, the solubility at 16 h in data set [2] is 2 µM (≈ 0.835 µg/mL).

For the origin of these results see patent publication US10766888B1, “HMOX1 inducers” (Mitobridge Inc., priority 2019, dated 2020).
